Reference: patent US20250152616A1, “COMPOSITIONS FOR AND METHODS OF TREATING, PREVENTING, AND/OR MITIGATING PAIN” (Duke University, priority 2022, published 2025)

System: fractured tibiae
Test: MicroCT of fractured tibiae (fracture healing)
Format: in vivo, mouse
Settings: 21 days post-fracture
Description: In all experiments, 12-week-old to 16-week-old C57BL/6J male mice (Jackson Laboratory, Bar Harbor, ME) and Lepr-cre; tdTomato reporter mice were used. The average mouse weight was 25 grams and mice were housed in groups of four to five, and kept on a 12-hr light-dark cycle with lights off at 1800 hr. All animals had ad libitum access to chow (PMI LabDiet 5001) and water. Fracture surgeries were performed as previously described (Zeng Y, et al. (2020) Adv Mater. 32:e1906022). Animals were anesthetized by isoflurane and injected with 1 mg/kg buprenorphine SR-LAB (ZooPharm, Laramie, WY). Each mouse was then placed in a supine position with the right tibia disinfected. After skin incision and reflection, proximal to the right knee, a 0.7-mm pin was inserted from the tibial plateau through the medullary cavity to stabilize the tibia, and a cut was made at the tibial midshaft to induce a transverse fracture. Bupivacaine (0.5%; Hospira, Lake Forest, IL) at ˜1 mg/kg body weight was applied at the surgical site following wound closure using 2 reflex clips (5 mm). For animals treated with control and adenosine-loaded macroporous hydrogels, macroporous hydrogels measuring approximately 5 mm (length)×3 mm (width)×1 mm (thick) containing either 1.05±0.1 mg adenosine (ADO) or no adenosine (CTL) were implanted adjacent to the fractures immediately. […] The animals were treated with the macroporous hydrogels with or without adenosine immediately following the fracture. In the cohorts for weight bearing and open field activity measurements, 1 animal from the control group and 1 animal from the treatment group were euthanized due to shift of the inserted pin following fracture.
Tibiae were collected, fixed in 4% PFA at 4° C. for 1 day, and rinsed with PBS. The fixed samples were placed in 50-mL centrifuge tubes with styrofoam spacers and loaded into a microcomputed tomography (microCT) scanner (vivaCT 80, Scanco Medical, Wayne, PA). The samples were scanned at 55 keV at a pixel resolution of 10.4 μm. The reconstruction of the images was performed using microCT Evaluation Program V6.6 (Scanco Medical), followed by generation of radiographs and 3D models using microCT Ray V4.0 (Scanco Medical). Total volume (TV), bone volume (BV) per total volume (TV) (% BV/TV), and bone mineral density (BMD) was quantified using the phantom as a reference based on 100 contiguous slices.

For `Nc1ncnc2c1ncn2[C@@H]1O[C@H](CO)[C@@H](O)[C@H]1O` [adenosine], the “callus size (microCT)” value was “smaller calluses”, the “cortical bone bridging (microCT)” value was “improved bridging of cortical bone with less trabecular bone” and the “total volume (TV) of regenerating calluses vs control” value was “lower”. The “fracture healing (microCT images and radiographs)” value (local delivery) was “accelerated”.
